Data published in the NIST ThermoML archive (doi:10.1021/je060033f).
Numbers after ± are expanded uncertainties.

Assay: activity coefficient (dimensionless); of the first substance listed, at infinite dilution; xn = mol fraction of the nth substance listed
Settings: 323.15 K; 101 kPa; Liquid; Chromatography; x1 = 0

Row | SMILES | activity coefficient
1 | CCCCCC [hexane] + C=CC[n+]1ccn(CCCCCCCCCCCC)c1.[Br-] | 4.41 ± 0.3
2 | CCCCCCCCC [nonane] + C=CC[n+]1ccn(CCCCCCCCCC)c1.[Br-] | 16.9 ± 1.2
3 | C1CCCCC1 [cyclohexane] + C=CC[n+]1ccn(CCCCCCCCCCCC)c1.[Br-] | 3.12 ± 0.21
4 | Cc1ccccc1C [1,2-dimethylbenzene] + C[n+]1ccn(CCCB(O)O)c1.[Br-] | 44 ± 3
5 | CCC(C)=O [butanone] + C[n+]1ccn(CCCB(O)O)c1.[Br-] | 21.8 ± 1.5
6 | C1CCCCC1 [cyclohexane] + CCCCCCCCCC[n+]1ccn(CCCB(O)O)c1.[Br-] | 3.89 ± 0.26
7 | C=CCCCC [hex-1-ene] + CCCCCCCC[n+]1ccn(CCCB(O)O)c1.[Br-] | 8.32 ± 0.57
8 | ClC(Cl)(Cl)Cl [tetrachloromethane] + C=CC[n+]1ccn(CCCCCCCCCC)c1.[Br-] | 0.8 ± 0.05
9 | CCC[N+](=O)[O-] [1-nitropropane] + C=CC[n+]1ccn(CCCCCCCCCC)c1.[Br-] | 1.14 ± 0.07
10 | Cc1ccccc1C [1,2-dimethylbenzene] + C=CCn1cc[n+](C)c1.[Br-] | 8.98 ± 0.61
11 | CCOCC [diethyl ether] + C=CC[n+]1ccn(CCCCCCCCCCCC)c1.[Br-] | 2.95 ± 0.2
12 | CCC[N+](=O)[O-] [1-nitropropane] + CCCCCCCCCCCC[n+]1ccn(CCCB(O)O)c1.[Br-] | 1.51 ± 0.1
13 | Cc1ccccc1 [toluene] + C=CC[n+]1ccn(CCCCCCCCCCCC)c1.[Br-] | 1.38 ± 0.09
14 | Cc1ccccc1 [toluene] + C=CC[n+]1ccn(CCCCCCCCCC)c1.[Br-] | 1.85 ± 0.12
15 | CCOCC [diethyl ether] + C=CCn1cc[n+](C)c1.[Br-] | 11.4 ± 0.78

Next, values leading:

Row | activity coefficient | SMILES
16 | 0.28 ± 0.03 | CCCO [propan-1-ol] + C=CC[n+]1ccn(CCCCCCCCCC)c1.[Br-]
17 | 0.29 ± 0.03 | CC(C)O [propan-2-ol] + C=CC[n+]1ccn(CCCCCCCCCCCC)c1.[Br-]
18 | 0.89 ± 0.06 | CC#N [acetonitrile] + C=CC[n+]1ccn(CCCCCCCCCC)c1.[Br-]
19 | 13.2 ± 0.9 | C#CCCCCC [1-heptyne] + C=CCn1cc[n+](C)c1.[Br-]
20 | 0.15 ± 0.03 | CO [methanol] + C=CC[n+]1ccn(CCCCCCCCCCCC)c1.[Br-]
21 | 1.33 ± 0.09 | c1ccccc1 [benzene] + CCCCCCCCCC[n+]1ccn(CCCB(O)O)c1.[Br-]
22 | 0.28 ± 0.03 | ClCCl [dichloromethane] + C=CC[n+]1ccn(CCCCCCCC)c1.[Br-]
23 | 0.34 ± 0.03 | ClCCl [dichloromethane] + CCCCCCCCCCCC[n+]1ccn(CCCB(O)O)c1.[Br-]
24 | 23.6 ± 1.6 | CCCCCCCC [octane] + CCCCCCCC[n+]1ccn(CCCB(O)O)c1.[Br-]
25 | 0.77 ± 0.05 | c1ccsc1 [thiophene] + C=CC[n+]1ccn(CCCCCCCCCCCC)c1.[Br-]
26 | 49.6 ± 3.4 | CCCCCCC [heptane] + C=CCn1cc[n+](C)c1.[Br-]
27 | 4.65 ± 0.32 | CCCCCC [hexane] + CCCCCCCCCCCC[n+]1ccn(CCCB(O)O)c1.[Br-]
28 | 19.4 ± 1.3 | c1ccsc1 [thiophene] + C[n+]1ccn(CCCB(O)O)c1.[Br-]
29 | 1.93 ± 0.13 | CCCC(C)=O [pentan-2-one] + C=CC[n+]1ccn(CCCCCCCC)c1.[Br-]
30 | 9.92 ± 0.68 | CCCCCCCCC [nonane] + CCCCCCCCCC[n+]1ccn(CCCB(O)O)c1.[Br-]
31 | 1.87 ± 0.13 | C#CCCCCC [1-heptyne] + C=CC[n+]1ccn(CCCCCCCCCCCC)c1.[Br-]
32 | 1.84 ± 0.12 | c1ccccc1 [benzene] + CCCCCCCC[n+]1ccn(CCCB(O)O)c1.[Br-]
33 | 1.28 ± 0.08 | CC#N [acetonitrile] + CCCCCCCC[n+]1ccn(CCCB(O)O)c1.[Br-]
34 | 16.5 ± 1.1 | C=CCCCC [hex-1-ene] + C=CCn1cc[n+](C)c1.[Br-]
35 | 3.76 ± 0.26 | C=CCCCC [hex-1-ene] + CCCCCCCCCC[n+]1ccn(CCCB(O)O)c1.[Br-]
